Assays:
HepG2 cell clusters = details: FIG. 47 and 48
Procedure: A549 cells, a human lung cancer-derived cell line, were seeded on an EZSPHERE 6-well plate (manufactured by AGC Techno Glass Co., Ltd.) at a density of 1.50×10^5 cells per well, and the cells were cultured in MEM medium containing 10% fetal bovine serum and MEM Non-Essential Amino Acids Solution (100x) (manufactured by Gibco, Inc.) at a final concentration of 1× under the conditions of 5% CO2, 37° C., and 100% humidity for 3 days, to form cell clusters. A DMSO solution of staurosporine (manufactured by FUJIFILM Wako Pure Chemical Corporation) was added thereto so as to obtain a final concentration of 0, 10, 20, 50, 100, 200, 300, 500, 700, 1000, 2000, or 5000 nM, and the cells were further cultured for 1 day. […]
Subsequently, the threshold value of the amount of spatial variation of the refractive index used in the threshold method was set to 2×10^−4. Subsequently, the refractive index distribution data was subjected to Gaussian noise removal processing using a Gaussian filter, fourth-order differentiation processing, and image convolution processing, and the amount of spatial variation of the refractive index for each voxel included in the refractive index distribution data was calculated. […]

Procedure for A549 cell clusters: A549 cells, a human lung cancer-derived cell line, were seeded on an EZSPHERE 6-well plate (manufactured by AGC Techno Glass Co., Ltd.) at a density of 1.50×10^5 cells per well, and the cells were cultured in MEM medium containing 10% fetal bovine serum and MEM Non-Essential Amino Acids Solution (100x) (manufactured by Gibco, Inc.) at a final concentration of 1× under the conditions of 5% CO2, 37° C., and 100% humidity for 3 days, to form cell clusters. A DMSO solution of staurosporine (manufactured by FUJIFILM Wako Pure Chemical Corporation) was added thereto so as to obtain a final concentration of 0, 10, 20, 50, 100, 200, 300, 500, 700, 1000, 2000, or 5000 nM, and the cells were further cultured for 1 day. Under the conditions in which the final concentration of STS was 0 nM, a solution of DMSO (manufactured by Sigma-Aldrich Corporation), which was used as a solvent for STS, at a final concentration of 0.5% was added.
For the obtained cell clusters, the refractive index distribution data was acquired using an observation apparatus 1A and the ODT shown in the refractive index distribution measurement method C. An objective lens at a magnification of 60 times was used.
Subsequently, the threshold value of the amount of spatial variation of the refractive index used in the threshold method was set to 2×10^−4. Subsequently, the refractive index distribution data was subjected to Gaussian noise removal processing using a Gaussian filter, fourth-order differentiation processing, and image convolution processing, and the amount of spatial variation of the refractive index for each voxel included in the refractive index distribution data was calculated. Lastly, the obtained amount of spatial variation of the refractive index was compared with the threshold value 2×10^−4, a region having an amount of spatial variation of the refractive index greater than the threshold value was determined to be a region of cells that had undergone programmed cell death (region of dead cells), and a region having an amount of spatial variation of the refractive index smaller than the threshold value was determined to be a non-divided region (region of live cells).

CN[C@@H]1C[C@H]2O[C@@](C)([C@@H]1OC)n1c3ccccc3c3c4c(c5c6ccccc6n2c5c31)C(=O)NC4 [staurosporine]
external shape of the cell cluster (HepG2 cell clusters): conspicuous changes in the external shape did not occur | equivalent diameter of the cell cluster (A549 cell clusters; 0-5000 nM, FIG. 41): not dependent on the concentration of staurosporine | volume of the cell cluster (A549 cell clusters; 0-5000 nM, FIG. 42): not dependent on the concentration of staurosporine | proportion of regions determined to be non-divided regions (live cells) (A549 cell clusters; 0-5000 nM, FIG. 46): decreased in a staurosporine concentration-dependent manner | nuclear fragmentation (morphological feature of apoptosis) in refractive index tomography data (A549 cell clusters; 1000 nM, FIG. 43): cells with nuclear fragmentation, which is a morphological feature of apoptosis, were observed on the surface and the inside of the cell cluster

From patent publication US20260017958A1, “METHOD FOR DETERMINING REGION OF CELL THAT HAS UNDERGONE PROGRAMMED CELL DEATH, DEVICE COMPRISING DETERMINATION UNIT, AND INFORMATION PROCESSING PROGRAM INCLUDING DETERMINATION STEP” (priority 2022, published 2026)
